From patent US20030199431A1, “Modified peptide nucleic acid (PNA) molecules” (priority 1999, published 2003)
Read-outs that look alike come from different tables or passages of the source.

Legend:
[1] = test system: E. coli K12; type: cell-based, Escherichia coli
Procedure: To test the effect of a Peptide without a PNA, peptide no. 2339, H-KFFKFFKFF-OH (SEQ ID NO: 1), was added to E. coli K12 in 10% and 100% medium (Mueller-Hinton broth).

[2] = test system: test culture; type: cell-based

For H-KFFKFFKFF-OH [Peptide 2339], the Bacterial growth inhibition ([1]; Peptide 100 nM, 4.0 × 10^3 bacteria/ml, 10% medium) was “− (Lagphase extended less than five times;)”, the Bacterial growth inhibition ([1]; Peptide 100 nM, 4.0 × 10^4 bacteria/ml, 10% medium) was “− (Lagphase extended less than five times;)” and the Bacterial growth inhibition ([1]; Peptide 100 nM, 7.9 × 10^3 bacteria/ml, 10% medium) was “− (Lagphase extended less than five times;)”. For the same substance, the Bacterial growth inhibition ([1]; Peptide 100 nM, 16 bacteria/ml, 100% medium) was “− (Lagphase extended less than five times)”, the Bacterial growth inhibition ([1]; Peptide 100 nM, 160 bacteria/ml, 100% medium) was “− (Lagphase extended less than five times)” and the Bacterial growth inhibition ([1]; Peptide 100 nM, 1600 bacteria/ml, 100% medium) was “− (Lagphase extended less than five times)”. The Bacterial growth inhibition ([1]; Peptide 300 nM, 4.0 × 10^3 bacteria/ml, 10% medium) was “− (Lagphase extended less than five times;)”, the Bacterial growth inhibition ([1]; Peptide 300 nM, 4.0 × 10^4 bacteria/ml, 10% medium) was “− (Lagphase extended less than five times;)” and the Bacterial growth inhibition ([1]; Peptide 300 nM, 7.9 × 10^3 bacteria/ml, 10% medium) was “− (Lagphase extended less than five times;)”. For the same substance, the Bacterial growth inhibition ([1]; Peptide 300 nM, 16 bacteria/ml, 100% medium) was “− (Lagphase extended less than five times)”, the Bacterial growth inhibition ([1]; Peptide 300 nM, 160 bacteria/ml, 100% medium) was “− (Lagphase extended less than five times)” and the Bacterial growth inhibition ([1]; Peptide 300 nM, 1600 bacteria/ml, 100% medium) was “− (Lagphase extended less than five times)”. The Bacterial growth inhibition ([1]; Peptide 500 nM, 4.0 × 10^3 bacteria/ml, 10% medium) was “− (Lagphase extended less than five times;)”, the Bacterial growth inhibition ([1]; Peptide 500 nM, 4.0 × 10^4 bacteria/ml, 10% medium) was “− (Lagphase extended less than five times;)” and the Bacterial growth inhibition ([1]; Peptide 500 nM, 7.9 × 10^3 bacteria/ml, 10% medium) was “− (Lagphase extended less than five times;)”. For the same substance, the Bacterial growth inhibition ([1]; Peptide 500 nM, 16 bacteria/ml, 100% medium) was “− (Lagphase extended less than five times)”, the Bacterial growth inhibition ([1]; Peptide 500 nM, 160 bacteria/ml, 100% medium) was “− (Lagphase extended less than five times)” and the Bacterial growth inhibition ([1]; Peptide 500 nM, 1600 bacteria/ml, 100% medium) was “− (Lagphase extended less than five times)”. For the same substance, the Bacterial growth inhibition ([1]; Peptide 700 nM, 4.0 × 10^3 bacteria/ml, 10% medium) was “− (Lagphase extended less than five times;)”, the Bacterial growth inhibition ([1]; Peptide 700 nM, 4.0 × 10^4 bacteria/ml, 10% medium) was “− (Lagphase extended less than five times;)” and the Bacterial growth inhibition ([1]; Peptide 700 nM, 7.9 × 10^3 bacteria/ml, 10% medium) was “− (Lagphase extended less than five times;)”. For the same substance, the Bacterial growth inhibition ([1]; Peptide 700 nM, 16 bacteria/ml, 100% medium) was “− (Lagphase extended less than five times)”, the Bacterial growth inhibition ([1]; Peptide 700 nM, 160 bacteria/ml, 100% medium) was “− (Lagphase extended less than five times)” and the Bacterial growth inhibition ([1]; Peptide 700 nM, 1600 bacteria/ml, 100% medium) was “− (Lagphase extended less than five times)”. The Bacterial growth inhibition ([1]; Peptide 900 nM, 4.0 × 10^3 bacteria/ml, 10% medium) was “− (Lagphase extended less than five times;)”, the Bacterial growth inhibition ([1]; Peptide 900 nM, 4.0 × 10^4 bacteria/ml, 10% medium) was “− (Lagphase extended less than five times;)” and the Bacterial growth inhibition ([1]; Peptide 900 nM, 7.9 × 10^3 bacteria/ml, 10% medium) was “− (Lagphase extended less than five times;)”. For the same substance, the Bacterial growth inhibition ([1]; Peptide 900 nM, 16 bacteria/ml, 100% medium) was “− (Lagphase extended less than five times)”, the Bacterial growth inhibition ([1]; Peptide 900 nM, 160 bacteria/ml, 100% medium) was “− (Lagphase extended less than five times)” and the Bacterial growth inhibition ([1]; Peptide 900 nM, 1600 bacteria/ml, 100% medium) was “− (Lagphase extended less than five times)”. For the same substance, the Bacterial growth inhibition ([1]; Peptide 1100 nM, 4.0 × 10^3 bacteria/ml, 10% medium) was “− (Lagphase extended less than five times;)”, the Bacterial growth inhibition ([1]; Peptide 1100 nM, 4.0 × 10^4 bacteria/ml, 10% medium) was “− (Lagphase extended less than five times;)” and the Bacterial growth inhibition ([1]; Peptide 1100 nM, 7.9 × 10^3 bacteria/ml, 10% medium) was “− (Lagphase extended less than five times;)”. For the same substance, the Bacterial growth inhibition ([1]; Peptide 1100 nM, 16 bacteria/ml, 100% medium) was “− (Lagphase extended less than five times)”, the Bacterial growth inhibition ([1]; Peptide 1100 nM, 160 bacteria/ml, 100% medium) was “− (Lagphase extended less than five times)” and the Bacterial growth inhibition ([1]; Peptide 1100 nM, 1600 bacteria/ml, 100% medium) was “− (Lagphase extended less than five times)”. For the same substance, the Bacterial growth inhibition ([1]; Peptide 1300 nM, 4.0 × 10^3 bacteria/ml, 10% medium) was “− (Lagphase extended less than five times;)”, the Bacterial growth inhibition ([1]; Peptide 1300 nM, 4.0 × 10^4 bacteria/ml, 10% medium) was “− (Lagphase extended less than five times;)” and the Bacterial growth inhibition ([1]; Peptide 1300 nM, 7.9 × 10^3 bacteria/ml, 10% medium) was “− (Lagphase extended less than five times;)”. The Bacterial growth inhibition ([1]; Peptide 1300 nM, 16 bacteria/ml, 100% medium) was “− (Lagphase extended less than five times)”, the Bacterial growth inhibition ([1]; Peptide 1300 nM, 160 bacteria/ml, 100% medium) was “− (Lagphase extended less than five times)” and the Bacterial growth inhibition ([1]; Peptide 1300 nM, 1600 bacteria/ml, 100% medium) was “− (Lagphase extended less than five times)”. For the same substance, the Bacterial growth inhibition ([1]; Peptide 1500 nM, 4.0 × 10^3 bacteria/ml, 10% medium) was “− (Lagphase extended less than five times;)”, the Bacterial growth inhibition ([1]; Peptide 1500 nM, 4.0 × 10^4 bacteria/ml, 10% medium) was “− (Lagphase extended less than five times;)” and the Bacterial growth inhibition ([1]; Peptide 1500 nM, 7.9 × 10^3 bacteria/ml, 10% medium) was “− (Lagphase extended less than five times;)”. For the same substance, the Bacterial growth inhibition ([1]; Peptide 1500 nM, 16 bacteria/ml, 100% medium) was “− (Lagphase extended less than five times)”, the Bacterial growth inhibition ([1]; Peptide 1500 nM, 160 bacteria/ml, 100% medium) was “− (Lagphase extended less than five times)” and the Bacterial growth inhibition ([1]; Peptide 1500 nM, 1600 bacteria/ml, 100% medium) was “− (Lagphase extended less than five times)”. For the same substance, the Bacterial growth inhibition ([1]; Peptide 2500 nM, 4.0 × 10^3 bacteria/ml, 10% medium) was “− (Lagphase extended less than five times;)”, the Bacterial growth inhibition ([1]; Peptide 2500 nM, 4.0 × 10^4 bacteria/ml, 10% medium) was “− (Lagphase extended less than five times;)” and the Bacterial growth inhibition ([1]; Peptide 2500 nM, 7.9 × 10^3 bacteria/ml, 10% medium) was “− (Lagphase extended less than five times;)”. The Bacterial growth inhibition ([1]; Peptide 2500 nM, 16 bacteria/ml, 100% medium) was “− (Lagphase extended less than five times)”, the Bacterial growth inhibition ([1]; Peptide 2500 nM, 160 bacteria/ml, 100% medium) was “− (Lagphase extended less than five times)” and the Bacterial growth inhibition ([1]; Peptide 2500 nM, 1600 bacteria/ml, 100% medium) was “− (Lagphase extended less than five times)”. For the same substance, the Bacterial growth inhibition ([1]; Peptide 5000 nM, 4.0 × 10^3 bacteria/ml, 10% medium) was “((+)) (Lagphase extended less than five times, but still with growth curve effect)”, the Bacterial growth inhibition ([1]; Peptide 5000 nM, 4.0 × 10^4 bacteria/ml, 10% medium) was “((+)) (Lagphase extended less than five times, but still with growth curve effect)” and the Bacterial growth inhibition ([1]; Peptide 5000 nM, 7.9 × 10^3 bacteria/ml, 10% medium) was “((+)) (Lagphase extended less than five times, but still with growth curve effect)”. For the same substance, the Bacterial growth inhibition ([1]; Peptide 5000 nM, 16 bacteria/ml, 100% medium) was “− (Lagphase extended less than five times)”, the Bacterial growth inhibition ([1]; Peptide 5000 nM, 160 bacteria/ml, 100% medium) was “− (Lagphase extended less than five times)” and the Bacterial growth inhibition ([1]; Peptide 5000 nM, 1600 bacteria/ml, 100% medium) was “− (Lagphase extended less than five times)”. The Bacterial growth inhibition ([1]; Peptide 10000 nM, 4.0 × 10^3 bacteria/ml, 10% medium) was “((+)) (Lagphase extended less than five times, but still with growth curve effect)”, the Bacterial growth inhibition ([1]; Peptide 10000 nM, 4.0 × 10^4 bacteria/ml, 10% medium) was “((+)) (Lagphase extended less than five times, but still with growth curve effect)” and the Bacterial growth inhibition ([1]; Peptide 10000 nM, 7.9 × 10^3 bacteria/ml, 10% medium) was “((+)) (Lagphase extended less than five times, but still with growth curve effect)”. The Bacterial growth inhibition ([1]; Peptide 10000 nM, 16 bacteria/ml, 100% medium) was “− (Lagphase extended less than five times)”, the Bacterial growth inhibition ([1]; Peptide 10000 nM, 160 bacteria/ml, 100% medium) was “− (Lagphase extended less than five times)” and the Bacterial growth inhibition ([1]; Peptide 10000 nM, 1600 bacteria/ml, 100% medium) was “− (Lagphase extended less than five times)”. For the same substance, the Bacterial growth inhibition ([1]; Peptide 15000 nM, 4.0 × 10^3 bacteria/ml, 10% medium) was “((+)) (Lagphase extended less than five times, but still with growth curve effect)”, the Bacterial growth inhibition ([1]; Peptide 15000 nM, 4.0 × 10^4 bacteria/ml, 10% medium) was “((+)) (Lagphase extended less than five times, but still with growth curve effect)” and the Bacterial growth inhibition ([1]; Peptide 15000 nM, 7.9 × 10^3 bacteria/ml, 10% medium) was “((+)) (Lagphase extended less than five times, but still with growth curve effect)”. The Bacterial growth inhibition ([1]; Peptide 15000 nM, 16 bacteria/ml, 100% medium) was “− (Lagphase extended less than five times)”, the Bacterial growth inhibition ([1]; Peptide 15000 nM, 160 bacteria/ml, 100% medium) was “− (Lagphase extended less than five times)” and the Bacterial growth inhibition ([1]; Peptide 15000 nM, 1600 bacteria/ml, 100% medium) was “− (Lagphase extended less than five times)”. The Bacterial growth inhibition ([1]; Peptide 20000 nM, 4.0 × 10^3 bacteria/ml, 10% medium) was “+”, the Bacterial growth inhibition ([1]; Peptide 20000 nM, 4.0 × 10^4 bacteria/ml, 10% medium) was “((+)) (Lagphase extended less than five times, but still with growth curve effect)” and the Bacterial growth inhibition ([1]; Peptide 20000 nM, 7.9 × 10^3 bacteria/ml, 10% medium) was “+”. For the same substance, the Bacterial growth inhibition ([1]; Peptide 20000 nM, 16 bacteria/ml, 100% medium) was “(+) (Significantly extended lagphase, (more than five times))”, the Bacterial growth inhibition ([1]; Peptide 20000 nM, 160 bacteria/ml, 100% medium) was “− (Lagphase extended less than five times)” and the Bacterial growth inhibition ([1]; Peptide 20000 nM, 1600 bacteria/ml, 100% medium) was “− (Lagphase extended less than five times)”. For the same substance, the “Peptide concentration giving total inhibition of growth” value ([1]; cultures with 7.9×10^3 cells/ml, peptide without PNA) was “at least 20,000 nM”, the “Peptide concentration at which minimal signs of growth inhibition were detected” value ([1]; peptide without PNA) was ≥ 5,000 nM and the Bacterial growth inhibition [2] was “− (key: +: Total inhibition of bacterial growth.; (+): Significantly extended lagphase, (more than five times); −: Lagphase extended less than five times;)”.
